Data reported in US6080753A, “Stimulating nerve growth with immunophilins” (Johns Hopkins University School of Medicine, priority 1997, dated 2000).
“Also recorded” adds a separate entry of the source.

How the values were obtained:
FKBP [1] = target: T1, FKBP (Rattus norvegicus, UniProt Q62658); assay: [3H]FK506 binding in rat tissues (Table 1A); parameters: from tissue; host or cells: rat sciatic nerve, cerebral cortex, thymus, spleen; neonatal rat forebrain and growth cones
Description: If FKBP were physiologically associated with neuronal process extension in the actions of GAP-43, then one might anticipate substantial levels of FKBP in peripheral nerve. Accordingly, we measured [^3 H]FK-506 binding in rat sciatic nerve, as well as in growth cones isolated from 2-day-old rat pups, and compared values with those of the cerebral cortex and several peripheral tissues.
For axon transport experiments, classic ligature techniques were used following the methods of Tetzlaff et al. One week following sciatic nerve crush two collection ligatures (510 sutures) were placed on the nerve approximately 10 mm apart with the distal most ligature positioned 10 mm proximal to the initial crush sight. Six hours later, 5-3 mm segments of the nerve were collected from regions proximal to, distal to, and between the collection ligatures as illustrated in FIG. 5. The nerve segments were prepared for [^3 H]FK-506 binding assays by homogenizing in 10 volumes of 50 mM Tris-HCl, pH 7.4. Homogenates were centrifuged at 15,000×g for 20 min at 4° C., and supernatants were collected and assayed for total protein concentration using the Coomassie blue dye binding assay (Pearce). [^3 H]FK-506 binding was carried out as described (4) on aliquots containing 2 ug of total soluble protein in a final volume of 0.4 ml assay buffer consisting of 50 mM Tris-HCl, pH 7.4, 2 mg/ml bovine serum albumin, 250 pM [^3 H]FK-506, and varying concentrations of unlabeled FK-506. Following incubation at 25° C. for 60 min, 0.35 ml was layered over a 0.8 ml column of LH-20 Sephadex (Pharmacia LKB) and washed with 0.4 ml of assay buffer. The eluates were collected and counted in a scintillation counter.

dorsal root ganglia = assay: Neurite/axon outgrowth in dorsal root ganglia explant cultures; assay type: cell-based, rat; settings: for time at which growth begins to plateau / time by which some outgrowth is evident: all concentrations
Protocol: Stage E16 embryos were removed from pregnant Sprague-Dawley rats and the dorsal root ganglia dissected. Whole ganglia explants were cultured in collagencoated 35 mm dishes (Falcon) using N2 medium (Dulbecco's Modified Eagle medium and Ham's F12 medium mixed 1:1 and supplemented with progesterone, selenium, insulin, putrescine, glucose, and penicillin-streptomycin) at 37° C. in a 15% CO2 environment. Sensory ganglia were treated with various concentrations of NGF and/or FK506 or rapamycin or anti-NGF antibody. Ganglia were observed every 2-3 days under phase-contrasting using an Olympus IMT-2 inverted microscope, and measurements of axon length were made. The axonal field of each ganglion was divided into four quadrants, and the length of the longest axons in each quadrant was measured in microns using an eye-piece micrometer. The average of these measurements was taken as the axon length for the ganglion.

PC-12 cells = assay: Neurite outgrowth in PC-12 cells; assay type: cell-based
Protocol: PC-12 cells were maintained at 37° C., 5% CO2, in Dulbecco's modified Eagle medium (DMEM) supplemented with 10% heat-inactivated horse serum and 5% heat-inactivated fetal bovine serum. For differentiation in NGF, cells were plated at 1×10^5 in 35 mm culture wells coated with rat tail collagen at 5 μg/cm^2, and allowed to attach before replacing the media with DBMEM supplemented with 2% fetal horse serum, 1% fetal calf serum, NGF and/or FK506 or rapamycin. For quantitation of neurite outgrowth, random photographs were made (3-4 per well), and process bearing neurons were counted with processes being greater than 5 μm. Experimental conditions were unknown by the photographer and cell counter. Four separate experiments were performed in duplicate for each data point presented. Neurites were identified and counted from approximately 100 cells per photograph. Thus, neurites from 1200-1600 cells were counted per data point.

FKBP [2] = target: T1, FKBP; assay: [3H]FK506 binding to PC-12 cell homogenates; parameters: endogenous in cells; host or cells: PC-12 cells; settings: for [3H]FK506 binding following NGF treatment: PC-12 cells, NGF 50 ng/ml
Protocol: Levels of FKBP in PC-12 cells were obtained from Scatchard analysis of [^3 H]FK506 binding curves. Cultures were scraped from the culture wells and homogenized in 10 volumes of 50 mM Tris-HCl, pH 7.4, 1 mM EDTA, 100 μg/ml phenylmethylsulfonylfluoride and centrifuged at 40,000×g for 20 min at 4° C. Protein was determined by the Coomassie blue dye binding assay using bovine serum albumin as a standard. Binding of 250 pM [^3 H]dihydro FK506 (86.5 Ci/mmol, DuPont/NEN) was assessed for samples containing 5 μg soluble protein in a final volume of 0.4 ml assay buffer containing 50 mM Tris-HCl, pH 7.4, 2 mg/ml BSA and varying concentrations of unlabeled FK506. After 60 min incubation at 25° C., 0.35 ml was layered over a 0.8 ml column of LH-20 Sephadex (Pharmacia LKB), pre-equilibrated with assay buffer. The column was further washed with 0.4 ml of assay buffer, the eluates collected, mixed with Formula 963 (DuPont/NEN) and counted in a Beckman scintillation counter. Specific binding was determined by subtracting binding obtained in the presence of 1 μM unlabeled FK506 from total [^3 H]FK506 bound.

FKBP [3] = target: T1, FKBP; assay: [3H]FK506 autoradiography on dorsal root ganglia cultures; assay type: binding; settings: 1 μM unlabeled FK506, 1 nM [3H]FK506
Protocol: For [^3 H]FK506 autoradiography, dorsal root ganglia cultures were grown on chamber slides coated with collagen, 5 μg/cm^2. Cultures were fixed on the slide with ice cold 4.0% freshly depolymerized paraformaldehyde in 0.1 M sodium phosphate buffer, pH 7.4, for 1 hr, then washed two times with phosphate buffered saline. Fixed cultures were labeled with [^3 H]FK506 by pre-incubating the slides in a buffer consisting of 50 mM Hepes, 2 mg/ml bovine serum albumin, 0.02% Tween-20 pH 7.4. This was followed by incubation in the same assay buffer containing 1 nM [^3 H]FK506. Non-specific binding was determined by adding 1 μM unlabeled FK506. The slides were then rinsed 4×5 min prior to drying, and juxtaposed to tritium-sensitive film for 10 days.

T1 sequence (Q62658 whole entry): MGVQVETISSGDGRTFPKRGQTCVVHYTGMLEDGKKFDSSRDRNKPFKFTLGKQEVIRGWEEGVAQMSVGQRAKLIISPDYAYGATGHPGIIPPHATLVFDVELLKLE

`[3H]CC([3H])C[C@@H]1/C=C(\C)C[C@H](C)C[C@H](OC)[C@H]2O[C@@](O)(C(=O)C(=O)N3CCCC[C@H]3C(=O)O[C@H](/C(C)=C/[C@@H]3CC[C@@H](O)[C@H](OC)C3)[C@H](C)[C@@H](O)CC1=O)[C@H](C)C[C@@H]2OC` (some centres unmarked) [[^3 H]FK506] was tested, and the “[3H]FK506 binding Bmax” value (FKBP [1]; adult rat, cerebral cortex) was 48.0 pmol/mg protein, the “[3H]FK506 binding Bmax” value (FKBP [1]; adult rat, sciatic nerve) was 22.1 pmol/mg protein and the “[3H]FK506 binding Bmax” value (FKBP [1]; adult rat, spleen) was 8.0 pmol/mg protein. For the same molecule, the “[3H]FK506 binding Bmax” value (FKBP [1]; adult rat, thymus) was 9.5 pmol/mg protein, the “[3H]FK506 binding Bmax” value (FKBP [1]; neonatal rat, forebrain) was 25.5 pmol/mg protein and the “[3H]FK506 binding Bmax” value (FKBP [1]; neonatal rat, growth cones) was 10.2 pmol/mg protein.

In the case of `CO[C@H]1C[C@@H]2CC[C@@H](C)[C@@](O)(O2)C(=O)C(=O)N2CCCC[C@H]2C(=O)O[C@H]([C@H](C)C[C@@H]2CC[C@@H](O)[C@H](OC)C2)CC(=O)[C@H](C)/C=C(\C)[C@@H](O)[C@@H](OC)C(=O)[C@H](C)C[C@H](C)/C=C/C=C/C=C/1C` [rapamycin], the “blockade of FK506 effect on outgrowth” value (dorsal root ganglia; rapamycin 1 μM with FK506 1 μM) is reported as “completely blocks the effects of FK506; also recorded: completely inhibits axon outgrowth in the presence of FK506”, the “kind of effect on neuritic processes” value (PC-12 cells) is reported as “augments the number of processes as well as their length” and the “combined effect of FK506 and rapamycin” value (PC-12 cells; FK506 plus rapamycin) is reported as “additive”. The neurite outgrowth (PC-12 cells; rapamycin 1 nM) was “major neurite outgrowth” and the “blockade of the neurotrophic actions of FK506” value (PC-12 cells; rapamycin 1 μM) was “fails to block the neurotrophic actions of FK506”.

In the case of nerve growth factor [NGF], the neurite/axon outgrowth (dorsal root ganglia; NGF 100 ng/ml) is reported as “markedly increases the number and length of ganglia processes; also recorded: abundant axon outgrowth”, the “time at which growth begins to plateau” value (dorsal root ganglia) is reported as 5 to 6 days and the “time by which some outgrowth is evident” value (dorsal root ganglia) is reported as no more than 1 days. The “concentration for maximal augmentation of neurite outgrowth” value (PC-12 cells; NGF alone) was 50 to 100 ng/mL, the “NGF concentration for half maximal outgrowth” value (PC-12 cells; in the absence of FK506) was 5 ng/mL and the “[3H]FK506 binding following NGF treatment” value (FKBP [2]) was “increases markedly”. The “[3H]FK506 binding following NGF treatment” value (FKBP [2]; by 20 hr) was “triples”.

`C=CC[C@@H]1/C=C(\C)C[C@H](C)C[C@H](OC)[C@H]2O[C@@](O)(C(=O)C(=O)N3CCCC[C@H]3C(=O)O[C@H](/C(C)=C/[C@@H]3CC[C@@H](O)[C@H](OC)C3)[C@H](C)[C@@H](O)CC1=O)[C@H](C)C[C@@H]2OC` [FK506] was tested, and the “neurite outgrowth compared with no added growth factor” value (dorsal root ganglia; FK506 1 pM) was “greater than in its absence”, the neurite/axon outgrowth (dorsal root ganglia; FK506 1 μM alone) was “produces a similar neurotrophic effect; also recorded: abundant axon outgrowth” and the neurite outgrowth (dorsal root ganglia; FK506 0.1 and 10 nM) was “Progressively greater outgrowth”. For the same molecule, the “concentration required for maximal outgrowth” value (dorsal root ganglia; FK506 alone) was 1 µM, the “lowest concentration producing a noticeable increase in growth” value (dorsal root ganglia; FK506 alone) was 1 nM and the “lowest concentration producing detectable augmentation of outgrowth” value (dorsal root ganglia; FK506 alone) was 1 pM. For the same molecule, the “time at which growth begins to plateau” value (dorsal root ganglia) was 5 to 6 days, the “time by which some outgrowth is evident” value (dorsal root ganglia) was no more than 1 days and the “kind of effect on neuritic processes” value (PC-12 cells) was “primarily increases neurite length”. The “reduction of the NGF concentration needed to elicit maximal outgrowth” value (PC-12 cells; FK506 100 nM) was 20-50 fold, the “effect on NGF-stimulated neurite outgrowth” value (PC-12 cells; FK506 100 nM, 48 hr) was “markedly augments the effect of NGF” and the “additional neurite outgrowth at maximal NGF” value (PC-12 cells; FK506 100 nM, NGF 10-100 ng/ml) was “fails to produce additional neurite outgrowth”. The “neurite outgrowth in the absence of NGF” value (PC-12 cells; no NGF) was “fails to elicit neurite outgrowth; also recorded: fails to stimulate neurite outgrowth”, the EC50 (PC-12 cells; with NGF 1 ng/ml, 48 hr, read-out: half maximal effects on neurite outgrowth) was roughly 0.1 nM and the “FK506 concentration eliciting the same maximal outgrowth as 50 ng/ml NGF” value (PC-12 cells; with submaximal NGF 1 ng/ml, 48 hr) was 1 nM. For the same molecule, the IC50 (FKBP [2]; untreated PC-12 cell homogenates, 250 pM radioligand, read-out: Fifty percent inhibition of [3H]FK506 binding) was 1 to 2 nM and the “displacement of [3H]FK506 autoradiographic grains” value (FKBP [3]) was “autoradiographic grains are abolished”.
